These results are taken from patent US11371099B2, “HEATR1 as a marker for chemoresistance” (MAYO FOUNDATION FOR MEDICAL EDUCATION AND RESEARCH, priority 2015, dated 2022).

Data set [1] concerns Akt. The note with it: cited from earlier work.
Data set [2] deals with SU86.86, ASPC-1, and PANC-1 cells. Description: MTS cell survival assay in pancreatic cancer cells transfected with control or HEATR1 siRNA/shRNA. The note with it: HEATR1 siRNA or shRNA vs control. The format is cell-based, human. As to the method:
FIG. 1. […] (A) Cells were transfected with indicated siRNA and treated with Gemcitabine. Cell survival was determined. […] (C) SU86.86 cells were transfected with indicated siRNA and treated. Cell survival was determined.
(A) PANC-1 and ASPC-1 cells stably expressing control or HEATR1 shRNA treated with gemcitabine. Cell survival was determined as described in FIG. 1A. The data presented are mean±SD for six independent experiments. […] (B) PANC-1 and ASPC-1 cells were transfected with control or HEATR1 siRNA and then treated with the indicated drugs. Cell survival was determined as described in A. The data presented are mean±SD for six independent experiments.
Human pancreatic cancer cell lines SU86.86, ASPC-1, and PANC-1 were purchased from ATCC in 2014. The identities of these cell lines were confirmed by the medical genome facility at Mayo Clinic Center using short tandem repeat profiling upon receipt. The cell lines were maintained in RPMI 1640 with 10% FBS. HEATR1 cDNA was purchased from Thermo Scientific and full length and mutants were subcloned into pIRES-EGFP. PP2A-Aα, B55α, B56β, Cα were purchased from addgene and subcloned into HA-pcmv and pGex4T-1. HEATR1 siRNA and shRNA were from Dharmacon and Sigma, respectively.
Gemcitabine was from Eli Lilly (Indianapolis, Ind.). Paclitaxel, SN-38, mitomycin c, oxaliplatin and etopside were from Sigma-Aldrich (St. Louis, Mo.). […] Ctrl (Control) or HEATR1 siRNA or shRNA were transfected, and the growth-inhibitory effect was performed as described previously (21). In one embodiment, a MTS assay may be performed by a MTS Cell Proliferation Assay Kit (Colorimetric) (197010); a colorimetric sensitive quantification of viable cells in proliferation and cytotoxicity assays. The assay is based on the reduction of MTS tetrazolium compound by viable cells to generate a colored formazan product that is soluble in cell culture media.

For a further data set, the system named is SU86.86 cells. Description: Apoptosis (cleaved PARP1 western blot) in cells expressing control or HEATR1 shRNA. The following applies: control cells vs HEATR1 shRNA cells; 10 μM, 48 hours. It is filed as cell-based, human. As to the method: (A) SU86.86 cells stably expressing control or HEATR1 shRNA treated with gemcitabine (10 μM). Cell lysate were collect at 48 hours and western blotting was performed with indicated antibodies. (B) Cells stably expressing control or HEATR1 shRNA were seeded in each well (5×10^4/well) and cell numbers were counted every 24 hour. Data are represented as the mean±SD of four independent experiments. We prepared cell lysates, performed immunoprecipitation, and immunoblotting as previously described. In brief, cells were lysed with NETN buffer (20 mM Tris-HCl, pH 8.0, 100 mM NaCl, 1 mM EDTA, 0.5% Nonidet P-40) containing 50 mM b-glycerophosphate, 10 mM NaF, and […] each of pepstatin A and aprotinin. Whole cell lysates were pulse-sonicated and obtained by centrifugation. Whole cell lysates were incubated with 2 μg of antibody and protein A or protein G Sepharose beads (Amersham Biosciences) for 2 hr or overnight at 4° C. The immunocomplexes were then washed with NETN buffer for three times and separated by SDS-PAGE. Immunoblotting was performed following standard procedures. GST fusion proteins were bound to glutathione-Sepharose overnight at 4° C. The beads were washed with PBS four times and incubated with cell lysates for 1 h at 4° C. After washing with NETN for three times, the bound proteins were separated by SDS-PAGE and immunoblotted with indicated antibodies.

The subject of a further data set is PANC-1 xenograft tumors. Description: Tumor xenograft study, PANC-1 cells stably expressing Ctrl or HEATR1 shRNA. The format is in vivo, mouse. The following applies: Gemcitabine 50 mg/kg i.p. every 3 days; HEATR1 shRNA vs Ctrl.
The conditions of data set [3]: patients with advanced solid tumors; cited from earlier work.
Another data set deals with pancreatic tumor. The following applies: dinaciclib combined with MK-2206; cited from earlier work.
Data set [4] relates to Akt. The following applies: cited from earlier work. The source holds these as a separate data set.
In data set [5] the test system is Akt phospho-Thr308 and phospho-Ser473. The following applies: in vivo, both sensitive and resistant tumors; cited from earlier work.
Data set [6] concerns Akt phosphorylation at Thr308. Description: Western blot of Akt phosphorylation after serum starvation and serum addition. It is filed as cell-based, human. The note with it: SU86.86 cells, pretreated 5 nM. On the procedure:
(A) Intracellular co-localization of HEATR1 and AKT were observed by using confocal microscopy in Su86.86, PANC-1 and ASPC-1 cells. (B) Cell lysates were subjected to immunoprecipitation with control IgG or anti-HEATR1 antibodies. The immunoprecipitates were then blotted with indicated antibodies. (C) Cells were transfected with control or HEATR1 siRNA, and the interaction between Akt and PDK1 was examined. (D) SU86.86 Cells transfected with control or HEATR1 siRNA were serum starved for 16 hours (0.1% serum), pretreated with DMSO or okadaic acid (5 nM) and then serum was added. Whole-cell lysates were harvested at indicated time and western blotting was performed with indicated antibodies.
We prepared cell lysates, performed immunoprecipitation, and immunoblotting as previously described. In brief, cells were lysed with NETN buffer (20 mM Tris-HCl, pH 8.0, 100 mM NaCl, 1 mM EDTA, 0.5% Nonidet P-40) containing 50 mM b-glycerophosphate, 10 mM NaF, and […] each of pepstatin A and aprotinin. Whole cell lysates were pulse-sonicated and obtained by centrifugation. Whole cell lysates were incubated with 2 μg of antibody and protein A or protein G Sepharose beads (Amersham Biosciences) for 2 hr or overnight at 4° C. The immunocomplexes were then washed with NETN buffer for three times and separated by SDS-PAGE. Immunoblotting was performed following standard procedures. […]

Method for PANC-1 xenograft tumors: Xenograft tumors were dissected and tumor weights were measured after mice were sacrificed (C). ANOVA analysis was performed (Mann-Whitney test) +P<0.05, ++P<0.01 (Ctrl vs KD). […] Representative photographs of indicated xenograft tumors were shown in (E). Female athymic nu/nu mice were obtained from the National Cancer Institute. Experiments were performed under the approval of the Institutional Animal Care and Use Committee at Mayo Clinic. PANC-1 cells stably expressing Ctrl and HEATR1 shRNA were injected subcutaneously in mouse flanks (10^6 cells/mouse flank). Tumor volumes were measured every three days. […] After sacrificing the mice, tumors were surgically removed and weighted.

With `S=C=NCc1ccccc1` [BITC, Benzyl isothiocyanate], the “Phosphorylation of Akt at both Ser-473 and Ser-308” value in the data set on Akt [1] is “suppresses”. Regarding `CC[C@@]1(O)C(=O)OCc2c1cc1n(c2=O)Cc2cc3ccccc3nc2-1` [Camptothecin], the “Cell survival / resistance to drug in cells with HEATR1 knockdown versus control” value in data set [2] is recorded as “significantly resistant”. `Nc1ccn([C@@H]2O[C@H](CO)[C@@H](O)C2(F)F)c(=O)n1` [Gemcitabine]: the “Apoptosis activity induced by drug” value in the data set with SU86.86 cells is “stronger apoptosis activity in control cells”. The “Cell survival / resistance to drug in cells with HEATR1 knockdown versus control” value in [2] was “increased resistance”. The “Tumor response to drug in xenografts with HEATR1 downregulation” value in the data set on PANC-1 xenograft tumors is recorded as “resistance to Gemcitabine”.

Turning to `NC1(c2ccc(-c3nc4ccn5c(=O)[nH]nc5c4cc3-c3ccccc3)cc2)CCC1` [MK-2206], the Tolerability result in data set [3] is listed as “well tolerated”. The “Pancreatic tumor growth and metastases” value with pancreatic tumor was “dramatically block”. With `CCCCCCCCCCCCc1ccc(S(=O)(=O)Nc2nncs2)cc1` [PHT-427], the “Akt activity in resistant cancer cells” value in the data set with Akt [4] was “increase in Akt activity”. For the same compound, the “Akt phospho-Thr308 and phospho-Ser473 in tumors” value in data set [5] was “decreased”. Take `CCc1c2c(nc3ccc(O)cc13)-c1cc3c(c(=O)n1C2)COC(=O)[C@]3(O)CC` [SN-38]: in data set [2], the “Cell survival / resistance to drug in cells with HEATR1 knockdown versus control” value is “significantly resistant”. `COc1cc([C@@H]2c3cc4c(cc3[C@@H](O[C@@H]3O[C@@H]5CO[C@@H](C)O[C@H]5[C@H](O)[C@H]3O)[C@H]3COC(=O)[C@H]23)OCO4)cc(OC)c1O` [etopside]: the “Cell survival / resistance to drug in cells with HEATR1 knockdown versus control” value in data set [2] is “significantly resistant”. Same read-out and setting: as for `CO[C@@]12[C@H](COC(N)=O)C3=C(C(=O)C(C)=C(N)C3=O)N1C[C@@H]1N[C@@H]12` [mitomycin c], the entry is “significantly resistant”. As for `C=C1[C@@H](O)[C@@H]2O[C@]3(CC[C@H](/C=C/[C@@H](C)[C@@H]4CC(C)=C[C@@]5(O[C@H](C[C@@](C)(O)C(=O)O)CC[C@H]5O)O4)O3)CC[C@H]2O[C@@H]1[C@@H](O)C[C@H](C)[C@H]1O[C@@]2(CCCCO2)CC[C@H]1C` [okadaic acid], the “Akt phosphorylation at Thr308” value in data set [6] is recorded as “significantly increased”. Take `O=C1[O][Pt]2([NH][C@@H]3CCCC[C@H]3[NH]2)[O]C1=O` [oxaliplatin]: the “Cell survival / resistance to drug in cells with HEATR1 knockdown versus control” value in [2] was “significantly resistant”. Still for that read-out and setting: as for `CC(=O)O[C@H]1C(=O)[C@@]2(C)[C@H]([C@H](OC(=O)c3ccccc3)[C@]3(O)C[C@H](OC(=O)[C@H](O)[C@@H](NC(=O)c4ccccc4)c4ccccc4)C(C)=C1C3(C)C)[C@]1(OC(C)=O)CO[C@@H]1C[C@@H]2O` [paclitaxel], the entry is “significantly resistant”.
